Where two headings read alike, the source gives them in different places.
Assays:
Format in all cases: cell-based
[1] = test system: K-562; assay: SRB colorimetric cell growth inhibition assay, K-562; conditions: Homo sapiens; for GI50: GI=growth inhibition, read-out: GI50 K-562; for CC50: LC=cell killing (cytotoxic effect); for IC (TGI): TGI=total growth inhibition (cytostatic effect), read-out: TGI K-562
How it was run: (§1)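 After uninterrupted treatment, cultures are fixed and stained with sulforhodamine B, and absorbance reflects cell growth and viability. Each value represents the average of triplicate wells with SD.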

[2] = test system: A-549; assay: SRB colorimetric cell growth inhibition assay, A-549; conditions: Homo sapiens; for GI50: GI=growth inhibition, read-out: GI50 A-549; for CC50: LC=cell killing (cytotoxic effect); for IC (TGI): TGI=total growth inhibition (cytostatic effect), read-out: TGI A-549
How it was run: as §1

[3] = test system: SK-MEL-28; assay: SRB colorimetric cell growth inhibition assay, SK-MEL-28; conditions: Homo sapiens; for GI50: GI=growth inhibition, read-out: GI50 MEL-28; for CC50: LC=cell killing (cytotoxic effect); for IC (TGI): TGI=total growth inhibition (cytostatic effect), read-out: TGI MEL-28
How it was run: as §1

[4] = test system: HT-29; assay: SRB colorimetric cell growth inhibition assay, HT-29; conditions: Homo sapiens; for GI50: GI=growth inhibition, read-out: GI50 HT-29; for CC50: LC=cell killing (cytotoxic effect); for IC (TGI): TGI=total growth inhibition (cytostatic effect), read-out: TGI HT-29
How it was run: as §1

[5] = test system: LoVo; assay: SRB colorimetric cell growth inhibition assay, LoVo; conditions: Homo sapiens, LoVo; for GI50: GI=growth inhibition, read-out: GI50 LOVO; for CC50: LC=cell killing (cytotoxic effect); for IC (TGI): TGI=total growth inhibition (cytostatic effect), read-out: TGI LOVO
How it was run: as §1

[6] = test system: LoVo-Dox; assay: SRB colorimetric cell growth inhibition assay, LoVo-Dox (MDR); conditions: Homo sapiens; for GI50: GI=growth inhibition, read-out: GI50 LOVO-DOX; for CC50: LC=cell killing (cytotoxic effect); for IC (TGI): TGI=total growth inhibition (cytostatic effect), read-out: TGI LOVO-DOX
How it was run: as §1

[7] = test system: DU-145; assay: SRB colorimetric cell growth inhibition assay, DU-145; conditions: Homo sapiens; for GI50: GI=growth inhibition, read-out: GI50 DU-145; for CC50: LC=cell killing (cytotoxic effect); for IC (TGI): TGI=total growth inhibition (cytostatic effect), read-out: TGI DU-145
How it was run: as §1

[8] = test system: LNCaP; assay: SRB colorimetric cell growth inhibition assay, LNCaP; conditions: Homo sapiens, LNCaP; for GI50: GI=growth inhibition, read-out: GI50 LN-caP; for CC50: LC=cell killing (cytotoxic effect); for IC (TGI): TGI=total growth inhibition (cytostatic effect), read-out: TGI LN-caP
How it was run: as §1

[9] = test system: SK-BR-3; assay: SRB colorimetric cell growth inhibition assay, SK-BR-3; conditions: Homo sapiens; for GI50: GI=growth inhibition, read-out: GI50 SK-BR-3; for CC50: LC=cell killing (cytotoxic effect); for IC (TGI): TGI=total growth inhibition (cytostatic effect), read-out: TGI SK-BR-3
How it was run: as §1

[10] = test system: IGROV; assay: SRB colorimetric cell growth inhibition assay, IGROV; conditions: Homo sapiens, IGROV; for GI50: GI=growth inhibition, read-out: GI50 IGROV; for CC50: LC=cell killing (cytotoxic effect); for IC (TGI): TGI=total growth inhibition (cytostatic effect), read-out: TGI IGROV
How it was run: as §1

[11] = test system: IGROV-ET; assay: SRB colorimetric cell growth inhibition assay, IGROV-ET (ET-743 resistant); conditions: Homo sapiens; for GI50: GI=growth inhibition, read-out: GI50 IGROV-ET; for CC50: LC=cell killing (cytotoxic effect); for IC (TGI): TGI=total growth inhibition (cytostatic effect), read-out: TGI IGROV-ET
How it was run: as §1

[12] = test system: HeLa; assay: SRB colorimetric cell growth inhibition assay, HeLa; conditions: Homo sapiens, HeLa; for GI50: GI=growth inhibition, read-out: GI50 HELA; for CC50: LC=cell killing (cytotoxic effect); for IC (TGI): read-out: TGI HELA
How it was run: as §1

[13] = test system: HeLa-APL; assay: SRB colorimetric cell growth inhibition assay, HeLa-APL (aplidine resistant); conditions: Homo sapiens; for GI50: read-out: GI50 HELA-APL; for CC50: LC=cell killing (cytotoxic effect); for IC (TGI): read-out: TGI HELA-APL
How it was run: as §1

[14] = test system: PANC-1; assay: SRB colorimetric cell growth inhibition assay, PANC-1; conditions: Homo sapiens; for GI50: GI=growth inhibition, read-out: GI50 PANC-1; for CC50: LC=cell killing (cytotoxic effect); for IC (TGI): TGI=total growth inhibition (cytostatic effect), read-out: TGI PANC-1
How it was run: as §1

## COc1cc(-c2c3n(c4c(=O)oc5cc(N)c(OC)cc5c24)CCc2cc(OC)c(OC)cc2-3)ccc1N [Compound 57]
[1]; K562, K-562
  GI50: 2.69 µM
  IC (TGI): 19.5 µM
[1]; K562, K-562, read-out: LC50 K-562
  CC50: 19.5 µM
[2]; A549, A-549
  GI50: 1.29 µM
  IC (TGI): 19.5 µM
[2]; A549, A-549, read-out: LC50 A-549
  CC50: 19.5 µM
[3]; SK-MEL-28, MEL-28
  GI50: 1.68 µM
  IC (TGI): 12.6 µM
[3]; SK-MEL-28, MEL-28, read-out: LC50 MEL-28
  CC50: 19.5 µM
[4]; HT-29, HT-29
  GI50: 3.49 µM
  IC (TGI): 19.5 µM
[4]; HT-29, HT-29, read-out: LC50 HT-29
  CC50: 19.5 µM
[5]
  GI50: 0.717 µM
  IC (TGI): 5.3 µM
[5]; read-out: LC50 LOVO
  CC50: 19.5 µM
[6]; LOVO-DOX
  GI50: 0.828 µM
  IC (TGI): 6.91 µM
[6]; LOVO-DOX, read-out: LC50 LOVO-DOX
  CC50: 19.5 µM
[7]; DU-145, DU-145
  GI50: 3.89 µM
  IC (TGI): 12.2 µM
[7]; DU-145, DU-145, read-out: LC50 DU-145
  CC50: 19.5 µM
[8]; LN-caP
  GI50: 2.16 µM
  IC (TGI): 5.47 µM
[8]; LN-caP, read-out: LC50 LN-caP
  CC50: 13.9 µM
[9]; SK-BR-3, SK-BR-3
  GI50: 0.317 µM
  IC (TGI): 5.24 µM
[9]; SK-BR-3, SK-BR-3, read-out: LC50 SK-BR-3
  CC50: 19.5 µM
[10]
  GI50: 0.847 µM
  IC (TGI): 5.88 µM
[10]; read-out: LC50 IGROV
  CC50: 19.5 µM
[11]; IGROV-ET
  GI50: 0.89 µM
  IC (TGI): 6.43 µM
[11]; IGROV-ET, read-out: LC50 IGROV-ET
  CC50: 19.5 µM
[12]
  GI50: 0.685 µM
[12]; read-out: LC50 HELA
  CC50: 19.5 µM
[12]; TGI=total growth inhibition (cytostatic effect)
  IC (TGI): 5.67 µM
[13]; HELA-APL, GI=growth inhibition
  GI50: 3.68 µM
[13]; HELA-APL, read-out: LC50 HELA-APL
  CC50: 19.5 µM
[13]; HELA-APL, TGI=total growth inhibition (cytostatic effect)
  IC (TGI): 11 µM
[14]; PANC-1, PANC-1
  GI50: 0.611 µM
  IC (TGI): 9.7 µM
[14]; PANC-1, PANC-1, read-out: LC50 PANC-1
  CC50: 19.5 µM

## COc1cc(-c2c3n(c4c(=O)oc5cc(OC(=O)[C@@H](N)CO)c(OC)cc5c24)CCc2c-3cc(OC)c(OC)c2OC(=O)[C@@H](N)CO)ccc1OC(=O)[C@@H](N)CO [Compound 59]
[1]; K562, K-562
  GI50: 1.64 µM
  IC (TGI): 3.45 µM
[1]; K562, read-out: LC50 K-562, K-562
  CC50: 7.27 µM
[2]; A549, A-549
  GI50: 1.7 µM
  IC (TGI): 3.29 µM
[2]; A549, read-out: LC50 A-549, A-549
  CC50: 6.36 µM
[3]; SK-MEL-28, MEL-28
  GI50: 1.62 µM
  IC (TGI): 3.04 µM
[3]; SK-MEL-28, read-out: LC50 MEL-28, MEL-28
  CC50: 5.67 µM
[4]; HT-29, HT-29
  GI50: 1.97 µM
  IC (TGI): 3.7 µM
[4]; HT-29, read-out: LC50 HT-29, HT-29
  CC50: 6.98 µM
[5]; read-out: LC50 LOVO, LOVO
  CC50: 5.67 µM
[5]
  GI50: 1.13 µM
  IC (TGI): 2.53 µM
[6]; LOVO-DOX
  GI50: 0.528 µM
  IC (TGI): 1.6 µM
[6]; read-out: LC50 LOVO-DOX, LOVO-DOX
  CC50: 4.56 µM
[7]; DU-145, DU-145
  GI50: 1.39 µM
  IC (TGI): 2.6 µM
[7]; DU-145, read-out: LC50 DU-145, DU-145
  CC50: 4.86 µM
[8]; LN-caP
  GI50: 1.37 µM
  IC (TGI): 2.63 µM
[8]; read-out: LC50 LN-caP, LN-caP
  CC50: 5.06 µM
[9]; SK-BR-3, SK-BR-3
  GI50: 0.372 µM
  IC (TGI): 1.15 µM
[9]; SK-BR-3, read-out: LC50 SK-BR-3, SK-BR-3
  CC50: 4.11 µM
[10]; read-out: LC50 IGROV, IGROV
  CC50: 7.67 µM
[10]
  GI50: 0.899 µM
  IC (TGI): 2.63 µM
[11]; IGROV-ET
  GI50: 0.632 µM
  IC (TGI): 2.04 µM
[11]; read-out: LC50 IGROV-ET, IGROV-ET
  CC50: 5.98 µM
[12]; read-out: LC50 HELA, HELA
  CC50: 6.44 µM
[12]
  IC (TGI): 2.98 µM
  GI50: 1.37 µM
[13]
  GI50: 1.88 µM
  IC (TGI): 3.9 µM
[13]; read-out: LC50 HELA-APL, HELA-APL
  CC50: 8.12 µM
[14]; PANC-1, PANC-1
  GI50: 1.1 µM
  IC (TGI): 3.48 µM
[14]; PANC-1, read-out: LC50 PANC-1, PANC-1
  CC50: 8.81 µM
